Test results from US20150087613A1, “Inhibition of Opioid Antinociceptive Tolerance and Withdrawal in Nociceptive Pain Therapy” (Saint Louis University, priority 2013, published 2015).
Read-outs that look alike come from different tables or passages of the source.

What was measured:
A1AR [1] = target: T1, A1AR (Homo sapiens, UniProt P30542); assay: Radioligand binding, membranes of CHO cells stably expressing hA1AR; settings: read-out: % inhibition A1
T1 construct: expressed in transfected cells
T1 sequence (P30542 1-326): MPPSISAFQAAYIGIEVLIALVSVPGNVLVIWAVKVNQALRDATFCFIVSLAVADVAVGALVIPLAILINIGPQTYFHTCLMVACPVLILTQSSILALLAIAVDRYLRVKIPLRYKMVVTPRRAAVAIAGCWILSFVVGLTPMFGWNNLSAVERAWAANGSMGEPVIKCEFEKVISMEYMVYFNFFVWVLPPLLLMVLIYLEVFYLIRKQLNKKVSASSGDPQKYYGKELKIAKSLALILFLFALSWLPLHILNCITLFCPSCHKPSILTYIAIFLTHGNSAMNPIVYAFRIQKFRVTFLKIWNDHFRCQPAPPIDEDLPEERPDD

A2AAR [2] = target: T2, A2AAR (Homo sapiens, UniProt P29274); assay: Radioligand binding, membranes of HEK293 cells stably expressing hA2AAR; settings: read-out: % inhibition A2A
T2 construct: expressed in transfected cells

A1AR [3] = target: T3, A1AR (Mus musculus, UniProt Q60612); assay: Radioligand binding, membranes of HEK293 cells stably expressing mA1AR; settings: read-out: % inhibition A1
T3 construct: expressed in transfected cells
T3 sequence (Q60612 1-326): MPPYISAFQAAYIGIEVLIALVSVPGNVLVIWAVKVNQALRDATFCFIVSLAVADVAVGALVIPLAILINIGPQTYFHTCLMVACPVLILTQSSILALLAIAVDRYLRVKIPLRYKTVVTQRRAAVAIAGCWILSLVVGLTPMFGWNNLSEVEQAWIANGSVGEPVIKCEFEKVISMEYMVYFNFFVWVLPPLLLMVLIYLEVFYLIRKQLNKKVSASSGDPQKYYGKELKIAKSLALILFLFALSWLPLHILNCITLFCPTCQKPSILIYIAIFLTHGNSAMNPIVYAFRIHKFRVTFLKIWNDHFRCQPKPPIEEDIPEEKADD

A3AR [4] = target: T4, A3AR (Homo sapiens, UniProt P0DMS8); assay: Radioligand binding, membranes of CHO cells stably expressing hA3AR; settings: species h; agonist radioligand 42; n 3-4; read-out: affinity (KV nM) A3
T4 construct: expressed in transfected cells
T4 sequence (P0DMS8 1-318): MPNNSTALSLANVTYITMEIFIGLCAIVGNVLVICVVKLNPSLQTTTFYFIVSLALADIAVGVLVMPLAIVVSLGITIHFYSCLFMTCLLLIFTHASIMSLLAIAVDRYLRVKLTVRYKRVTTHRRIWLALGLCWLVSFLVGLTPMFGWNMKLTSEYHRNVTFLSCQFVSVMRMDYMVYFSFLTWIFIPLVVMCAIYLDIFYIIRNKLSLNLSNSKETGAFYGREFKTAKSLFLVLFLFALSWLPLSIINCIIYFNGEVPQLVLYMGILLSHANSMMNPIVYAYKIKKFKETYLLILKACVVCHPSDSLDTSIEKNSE

hA3AR = target: T5, hA3AR (Homo sapiens, UniProt P0DMS8); assay: cAMP assay, inhibition of forskolin-stimulated cAMP in hA3AR-transfected CHO cells; assay type: cell-based; settings: CHO; read-out: % efficacy, A3
T5 construct: expressed in transfected cells
T5 sequence (P0DMS8 1-318): T4 sequence (P0DMS8 1-318)

A2AAR [5] = target: T6, A2AAR (Mus musculus, UniProt Q60613); assay: Radioligand binding, membranes of HEK293 cells stably expressing mA2AAR; settings: read-out: % inhibition A2A
T6 construct: expressed in transfected cells

A3AR [6] = target: T7, A3AR (Mus musculus, UniProt Q61618); assay: Radioligand binding, membranes of HEK293 cells stably expressing mA3AR; settings: species m; n 3-4; read-out: affinity (KV nM) A3
T7 construct: expressed in transfected cells
T7 sequence (Q61618 1-319): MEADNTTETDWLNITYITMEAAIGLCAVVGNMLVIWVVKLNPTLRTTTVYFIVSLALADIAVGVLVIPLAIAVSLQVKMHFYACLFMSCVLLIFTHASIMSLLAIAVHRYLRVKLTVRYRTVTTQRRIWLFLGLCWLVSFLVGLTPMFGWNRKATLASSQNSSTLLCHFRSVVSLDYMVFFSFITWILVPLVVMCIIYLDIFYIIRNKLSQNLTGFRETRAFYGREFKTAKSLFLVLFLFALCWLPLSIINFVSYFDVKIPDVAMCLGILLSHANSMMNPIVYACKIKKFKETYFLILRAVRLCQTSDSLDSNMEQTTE

A2AAR [7] = target: T2, A2AAR; settings: species h, tested in ref 26, cited from earlier work; for % inhibition A2A: inhibition of binding at 10 μM
A1AR [8] = target: T1, A1AR; settings: species h; inhibition of binding at 10 μM; tested in ref 26; cited from earlier work
A3AR [9] = target: T4, A3AR; settings: species h; agonist radioligand 42; tested in ref 26; read-out: affinity (KV nM) A3; cited from earlier work
Male Sprague Dawley rats [10] = assay: Rat morphine antinociceptive tolerance study (osmotic minipump, tail flick test); assay type: in vivo
Source text: Minipumps were filled according to manufacturer's specifications. The use of the osmotic pump ensures a continuous subcutaneously delivery of morphine avoiding intermittent periods of withdrawal. […] The integrity of the pump delivery system was reexamined at the end of each experiment when the spinal cords are harvested.
(§1) Test substances or vehicle were given on day 0 through 6 after completion of the behavioral tests.

Male Sprague Dawley rats [11] = assay: Acute antinociceptive interaction with acute morphine (tail flick); assay type: in vivo, rat; settings: morphine 3 mg/kg i.p., at 30 min
Source text: as §1

mA3AR = target: T8, mA3AR (Mus musculus, UniProt Q61618); assay: cAMP assay, inhibition of forskolin-stimulated cAMP in mA3AR-transfected HEK cells; assay type: cell-based; settings: HEK293; read-out: % efficacy, A3
T8 construct: expressed in transfected cells
T8 sequence (Q61618 1-319): T7 sequence (Q61618 1-319)

T6 sequence (Q60613 whole entry): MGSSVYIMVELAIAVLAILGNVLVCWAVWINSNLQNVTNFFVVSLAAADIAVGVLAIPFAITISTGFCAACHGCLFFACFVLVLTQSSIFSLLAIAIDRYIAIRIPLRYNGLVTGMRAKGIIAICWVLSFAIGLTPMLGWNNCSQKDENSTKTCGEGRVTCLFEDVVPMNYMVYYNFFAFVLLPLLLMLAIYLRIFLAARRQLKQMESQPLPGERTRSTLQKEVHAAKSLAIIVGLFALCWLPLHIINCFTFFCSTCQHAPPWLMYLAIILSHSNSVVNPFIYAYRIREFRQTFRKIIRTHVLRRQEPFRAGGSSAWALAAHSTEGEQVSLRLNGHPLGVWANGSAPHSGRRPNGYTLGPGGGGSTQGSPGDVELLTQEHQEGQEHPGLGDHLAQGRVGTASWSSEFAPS
T2 sequence (P29274 whole entry): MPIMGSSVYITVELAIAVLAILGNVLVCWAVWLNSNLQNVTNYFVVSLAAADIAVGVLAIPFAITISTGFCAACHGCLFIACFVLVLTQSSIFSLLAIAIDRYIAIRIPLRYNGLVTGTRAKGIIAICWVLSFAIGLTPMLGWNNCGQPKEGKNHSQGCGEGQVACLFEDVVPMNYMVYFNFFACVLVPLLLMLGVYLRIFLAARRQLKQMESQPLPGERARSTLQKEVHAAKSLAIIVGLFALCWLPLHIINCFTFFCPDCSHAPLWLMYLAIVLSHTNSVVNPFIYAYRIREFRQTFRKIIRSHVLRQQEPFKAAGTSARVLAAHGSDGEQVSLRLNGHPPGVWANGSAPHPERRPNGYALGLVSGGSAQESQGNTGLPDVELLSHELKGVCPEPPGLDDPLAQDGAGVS

SMILES | inhibition at 10 µM (A1AR [3]) | Emax at 10 µM (hA3AR) | inhibition at 10 µM (A2AAR [5]) | Ki (A3AR [6]) | % inhibition A1 (A1AR [8]) | % inhibition A2A (A2AAR [7]) | further results
O=S(=O)(O)c1ccc(CCNc2nc(C#Cc3ccccc3)nc3c2ncn3[C@H]2[C@H](O)[C@H](O)[C@@H]3C[C@@H]32)cc1 [Compound 16] | 18% | 7.2% | 1% | 3920 ± 1190 nM | – | – | inhibition at 10 µM (A1AR [1]): 10%; inhibition at 10 µM (A2AAR [2]): 15%; Ki (A3AR [4]): 30.2 ± 4.3 nM
OC1C(O)C(n2cnc3c(NCc4cccc(Cl)c4)nc(C#Cc4ccccc4)nc32)C2CC12 (stereo not shown) [Compound 11] | – | 13.8 ± 5.1% | – | – | – | – | Ki (A2AAR [7]; agonist radioligand 41, read-out: affinity (KV nM) A2A): 680 ± 170 nM
CCNc1nc(C#Cc2ccccc2)nc2c1ncn2[C@H]1[C@H](O)[C@H](O)[C@@H]2C[C@@H]21 [Compound 9] | 49% | 0.8 ± 5.2% | 49% | 1480 ± 170 nM | (36% ± 4%) | (42% ± 4%) | –
CCNc1nc(C#Cc2ccccc2Cl)nc2c1ncn2C1C(O)C(O)C2CC21 (stereo not shown) [Compound 10] | – | 7 ± 5.2% | – | – | (25% ± 11%) | (17% ± 6%) | Ki (A3AR [9]): 5.8 ± 2.08 nM
CN1CC[C@]23c4c5ccc(O)c4O[C@H]2[C@@H](O)C=C[C@H]3[C@H]1C5 [morphine] | – | – | – | – | – | – | analgesia at 2 hr following minipump implant (Male Sprague Dawley rats [10]; morphine 75 μg/μl/h s.c. by osmotic minipump): approximately 100 % analgesia; development of antinociceptive tolerance on chronic morphine infusion (Male Sprague Dawley rats [10]; s.c. infusion over 7 days (Veh-Mor, n=2) vs saline infusion, P<0.001, day 3 and 6): led to the development of antinociceptive tolerance; antinociception after acute morphine alone (Male Sprague Dawley rats [11]): 40±2 % antinociception
OC1C(O)C(n2cnc3c(NCC(c4ccccc4)c4ccccc4)nc(C#Cc4ccccc4Cl)nc32)C2CC12 (stereo not shown) [Compound 15] | – | 2.6 ± 1.3% | – | – | (26% ± 4%) | (22% ± 2%) | Ki (A3AR [9]): 140 ± 30 nM
CNC(=O)[C@@]12C[C@@H]1[C@@H](n1cnc3c(NCCc4ccccc4)nc(C#Cc4ccccc4)nc31)[C@H](O)[C@@H]2O [Compound 17] | 25% | 105 ± 9.8% | 1% | 8.75 ± 2.12 nM | – | – | inhibition at 10 µM (A1AR [1]): 11%; inhibition at 10 µM (A2AAR [2]): 32%; Ki (A3AR [4]): 1.23 ± 0.57 nM; Emax (mA3AR): 115 ± 14.6%
